Test results reported in ChEMBL document CHEMBL1177794, “Broad spectrum alkynyl inhibitors of T315I Bcr-Abl” (Bioorg Med Chem Lett, 2010).

Tests used:
[1] = tested on: Tyrosine-protein kinase ABL1 (Homo sapiens), P00519 [F317I]; experiment: Inhibition of non phosphorylated ABL1 F317I mutant at 10 uM; conditions: values are per cent of control
[2] = target: Activin receptor type-1 (Homo sapiens) (UniProt Q04771); experiment: Inhibition of ACVR1 at 10 uM; conditions: values are per cent of control
[3] = target: RAC-beta serine/threonine-protein kinase (Homo sapiens) (UniProt P31751); experiment: Inhibition of AKT2 at 10 uM; conditions: values are per cent of control
[4] = target: Bone morphogenetic protein receptor type-1B (Homo sapiens) (UniProt O00238); experiment: Inhibition of BMPR1B at 10 uM; conditions: values are per cent of control
[5] = target: Calcium/calmodulin-dependent protein kinase type 1D (Homo sapiens) (UniProt Q8IU85); experiment: Inhibition of CAMK1D at 10 uM; conditions: values are per cent of control
[6] = target: Cyclin-dependent kinase 11A (Homo sapiens) (UniProt Q9UQ88); experiment: Inhibition of CDC2L2 at 10 uM; conditions: values are per cent of control
[7] = target: Cyclin-dependent kinase-like 1 (Homo sapiens) (UniProt Q00532); experiment: Inhibition of CDKL1 at 10 uM; conditions: values are per cent of control
[8] = target: Dual specificity protein kinase CLK1 (Homo sapiens) (UniProt P49759); experiment: Inhibition of CLK1 at 10 uM; conditions: values are per cent of control
[9] = target: Serine/threonine-protein kinase MRCK gamma (Homo sapiens) (UniProt Q6DT37); experiment: Inhibition of DMPK2 at 10 uM; conditions: values are per cent of control
[10] = target: Serine/threonine-protein kinase/endoribonuclease IRE1 (Homo sapiens) (UniProt O75460); experiment: Inhibition of ERN1 at 10 uM; conditions: values are per cent of control
[11] = target: Insulin-like growth factor 1 receptor (Homo sapiens) (UniProt P08069); experiment: Inhibition of IGF1R at 10 uM; conditions: values are per cent of control
[12] = tested on: Mast/stem cell growth factor receptor Kit (Homo sapiens), P10721 [V559D]; experiment: Inhibition of KIT V559D mutant at 10 uM; conditions: values are per cent of control
[13] = target: Dual specificity mitogen-activated protein kinase kinase 2 (Homo sapiens) (UniProt P36507); experiment: Inhibition of MEK2 at 10 uM; conditions: values are per cent of control
[14] = target: Serine/threonine-protein kinase 26 (Homo sapiens) (UniProt Q9P289); experiment: Inhibition of MST4 at 10 uM
[15] = target: Muscle, skeletal receptor tyrosine-protein kinase (Homo sapiens) (UniProt O15146); experiment: Inhibition of MUSK at 10 uM
[16] = target: Myosin light chain kinase 2, skeletal/cardiac muscle (Homo sapiens) (UniProt Q9H1R3); experiment: Inhibition of MYLK2 at 10 uM
[17] = target: Serine/threonine-protein kinase Nek4 (Homo sapiens) (UniProt P51957); experiment: Inhibition of NEK4 at 10 uM
[18] = target: Serine/threonine-protein kinase 16 (Homo sapiens) (UniProt O75716); experiment: Inhibition of STK16 at 10 uM
[19] = target: Serine/threonine-protein kinase PAK 5 (Homo sapiens) (UniProt Q9P286); experiment: Inhibition of PAK7 at 10 uM; conditions: values are per cent of control
[20] = target: 3-phosphoinositide-dependent protein kinase 1 (Homo sapiens) (UniProt O15530); experiment: Inhibition of PDPK1 at 10 uM
[21] = target: Phosphatidylinositol 3-kinase C2 domain-containing subunit gamma (Homo sapiens) (UniProt O75747); experiment: Inhibition of PIK3C2G at 10 uM
[22] = target: Ribosomal protein S6 kinase beta-1 (Homo sapiens) (UniProt P23443); experiment: Inhibition of S6K1 at 10 uM
[23] = target: ALK tyrosine kinase receptor (Homo sapiens) (UniProt Q9UM73); experiment: Inhibition of ALK at 10 uM; values are per cent of control
[24] = target: Casein kinase I isoform gamma-2 (Homo sapiens) (UniProt P78368); experiment: Inhibition of CSNK1G2 at 10 uM; values are per cent of control
[25] = tested on: Epidermal growth factor receptor (Homo sapiens), P00533 [G719C]; experiment: Inhibition of EGFR G719C mutant at 10 uM; values are per cent of control

Chain of Dual specificity mitogen-activated protein kinase kinase 2 (Homo sapiens) (P36507 whole entry): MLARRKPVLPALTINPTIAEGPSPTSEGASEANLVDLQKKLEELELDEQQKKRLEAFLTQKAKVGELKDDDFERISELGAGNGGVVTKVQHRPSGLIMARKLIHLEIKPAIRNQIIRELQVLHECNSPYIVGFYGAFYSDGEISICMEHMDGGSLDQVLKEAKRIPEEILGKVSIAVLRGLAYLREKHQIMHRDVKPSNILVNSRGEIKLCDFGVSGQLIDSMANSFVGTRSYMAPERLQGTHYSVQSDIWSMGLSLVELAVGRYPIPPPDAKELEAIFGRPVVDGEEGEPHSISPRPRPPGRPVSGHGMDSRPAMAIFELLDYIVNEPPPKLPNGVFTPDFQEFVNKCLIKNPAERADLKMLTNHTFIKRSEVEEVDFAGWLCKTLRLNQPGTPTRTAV
Chain of Serine/threonine-protein kinase PAK 5 (Homo sapiens) (Q9P286 whole entry, looked up): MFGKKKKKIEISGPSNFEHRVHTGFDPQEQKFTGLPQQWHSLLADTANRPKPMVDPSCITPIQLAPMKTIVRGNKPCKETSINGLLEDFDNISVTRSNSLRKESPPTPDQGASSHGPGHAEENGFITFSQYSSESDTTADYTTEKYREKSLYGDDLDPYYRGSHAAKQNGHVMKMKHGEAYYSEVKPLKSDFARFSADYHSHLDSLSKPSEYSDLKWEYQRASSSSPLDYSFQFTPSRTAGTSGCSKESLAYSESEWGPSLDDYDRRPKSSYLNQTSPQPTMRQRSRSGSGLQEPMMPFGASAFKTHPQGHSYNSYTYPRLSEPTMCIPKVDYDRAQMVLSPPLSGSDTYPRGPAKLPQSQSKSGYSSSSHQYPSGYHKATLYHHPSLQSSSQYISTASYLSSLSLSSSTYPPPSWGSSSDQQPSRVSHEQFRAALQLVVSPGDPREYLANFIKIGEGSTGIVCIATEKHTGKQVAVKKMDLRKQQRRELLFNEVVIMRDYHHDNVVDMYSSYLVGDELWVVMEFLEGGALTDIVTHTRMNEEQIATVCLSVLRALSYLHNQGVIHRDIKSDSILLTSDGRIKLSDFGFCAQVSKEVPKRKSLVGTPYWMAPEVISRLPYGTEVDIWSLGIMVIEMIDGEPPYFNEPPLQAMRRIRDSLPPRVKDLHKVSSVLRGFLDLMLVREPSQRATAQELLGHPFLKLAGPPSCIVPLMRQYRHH
Chain of Serine/threonine-protein kinase MRCK gamma (Homo sapiens) (Q6DT37 whole entry): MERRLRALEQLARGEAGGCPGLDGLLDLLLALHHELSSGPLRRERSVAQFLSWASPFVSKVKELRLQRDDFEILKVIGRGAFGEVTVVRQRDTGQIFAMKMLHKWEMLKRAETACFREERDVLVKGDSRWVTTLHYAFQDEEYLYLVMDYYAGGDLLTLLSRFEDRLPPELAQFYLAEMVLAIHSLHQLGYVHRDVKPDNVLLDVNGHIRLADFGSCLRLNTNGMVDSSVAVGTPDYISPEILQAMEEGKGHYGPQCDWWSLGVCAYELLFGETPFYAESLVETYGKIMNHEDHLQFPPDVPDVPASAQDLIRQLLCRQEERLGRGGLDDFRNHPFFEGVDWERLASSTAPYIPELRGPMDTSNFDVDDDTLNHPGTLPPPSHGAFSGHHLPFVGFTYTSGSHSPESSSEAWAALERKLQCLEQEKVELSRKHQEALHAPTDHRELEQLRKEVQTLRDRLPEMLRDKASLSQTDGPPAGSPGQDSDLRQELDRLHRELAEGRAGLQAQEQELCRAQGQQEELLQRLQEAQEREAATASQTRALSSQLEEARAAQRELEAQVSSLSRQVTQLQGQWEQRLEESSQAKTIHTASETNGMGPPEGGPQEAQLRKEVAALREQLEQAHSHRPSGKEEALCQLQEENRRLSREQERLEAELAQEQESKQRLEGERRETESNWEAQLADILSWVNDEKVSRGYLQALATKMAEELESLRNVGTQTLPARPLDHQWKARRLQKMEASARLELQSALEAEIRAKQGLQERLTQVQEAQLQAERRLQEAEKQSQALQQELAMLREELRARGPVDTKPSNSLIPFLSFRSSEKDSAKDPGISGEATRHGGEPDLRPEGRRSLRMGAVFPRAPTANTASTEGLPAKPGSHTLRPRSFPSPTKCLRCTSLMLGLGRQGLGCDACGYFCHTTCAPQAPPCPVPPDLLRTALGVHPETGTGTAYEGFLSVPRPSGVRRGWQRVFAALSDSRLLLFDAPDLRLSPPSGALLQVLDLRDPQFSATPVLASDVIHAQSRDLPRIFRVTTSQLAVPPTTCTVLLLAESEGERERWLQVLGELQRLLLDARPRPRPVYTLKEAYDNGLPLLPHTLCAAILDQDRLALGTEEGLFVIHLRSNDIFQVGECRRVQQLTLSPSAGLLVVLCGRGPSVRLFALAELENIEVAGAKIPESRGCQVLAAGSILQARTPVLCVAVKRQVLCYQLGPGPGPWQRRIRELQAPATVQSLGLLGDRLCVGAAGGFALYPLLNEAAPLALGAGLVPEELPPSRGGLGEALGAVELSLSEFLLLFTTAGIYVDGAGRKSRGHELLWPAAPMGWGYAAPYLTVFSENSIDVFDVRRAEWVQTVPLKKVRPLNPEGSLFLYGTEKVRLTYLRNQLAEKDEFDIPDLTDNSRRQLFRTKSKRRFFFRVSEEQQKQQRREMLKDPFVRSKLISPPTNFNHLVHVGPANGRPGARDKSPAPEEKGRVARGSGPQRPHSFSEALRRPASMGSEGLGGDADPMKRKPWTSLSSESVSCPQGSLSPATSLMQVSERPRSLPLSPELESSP
Chain of Serine/threonine-protein kinase Nek4 (Homo sapiens) (P51957 whole entry, looked up): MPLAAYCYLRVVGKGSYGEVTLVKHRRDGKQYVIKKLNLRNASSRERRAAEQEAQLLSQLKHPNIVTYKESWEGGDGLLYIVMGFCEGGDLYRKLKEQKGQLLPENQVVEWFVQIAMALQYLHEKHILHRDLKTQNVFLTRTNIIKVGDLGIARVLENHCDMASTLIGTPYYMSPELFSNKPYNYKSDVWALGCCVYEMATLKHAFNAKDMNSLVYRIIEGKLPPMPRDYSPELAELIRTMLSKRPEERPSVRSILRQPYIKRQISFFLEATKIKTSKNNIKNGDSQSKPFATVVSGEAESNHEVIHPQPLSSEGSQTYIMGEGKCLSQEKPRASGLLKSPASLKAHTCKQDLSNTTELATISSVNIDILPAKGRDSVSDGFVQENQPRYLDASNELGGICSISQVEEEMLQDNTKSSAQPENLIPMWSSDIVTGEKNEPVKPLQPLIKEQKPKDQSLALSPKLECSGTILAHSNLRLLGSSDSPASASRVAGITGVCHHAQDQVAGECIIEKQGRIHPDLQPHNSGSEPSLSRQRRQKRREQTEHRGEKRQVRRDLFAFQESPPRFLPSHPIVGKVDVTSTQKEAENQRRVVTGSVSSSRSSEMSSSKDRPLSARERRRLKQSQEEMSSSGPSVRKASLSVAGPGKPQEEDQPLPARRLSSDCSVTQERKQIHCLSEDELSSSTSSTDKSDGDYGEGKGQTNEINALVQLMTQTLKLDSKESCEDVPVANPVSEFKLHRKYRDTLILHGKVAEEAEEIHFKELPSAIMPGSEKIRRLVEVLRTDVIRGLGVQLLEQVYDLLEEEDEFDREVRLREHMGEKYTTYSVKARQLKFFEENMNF
Chain of Phosphatidylinositol 3-kinase C2 domain-containing subunit gamma (Homo sapiens) (O75747 whole entry, the tested form may be a part): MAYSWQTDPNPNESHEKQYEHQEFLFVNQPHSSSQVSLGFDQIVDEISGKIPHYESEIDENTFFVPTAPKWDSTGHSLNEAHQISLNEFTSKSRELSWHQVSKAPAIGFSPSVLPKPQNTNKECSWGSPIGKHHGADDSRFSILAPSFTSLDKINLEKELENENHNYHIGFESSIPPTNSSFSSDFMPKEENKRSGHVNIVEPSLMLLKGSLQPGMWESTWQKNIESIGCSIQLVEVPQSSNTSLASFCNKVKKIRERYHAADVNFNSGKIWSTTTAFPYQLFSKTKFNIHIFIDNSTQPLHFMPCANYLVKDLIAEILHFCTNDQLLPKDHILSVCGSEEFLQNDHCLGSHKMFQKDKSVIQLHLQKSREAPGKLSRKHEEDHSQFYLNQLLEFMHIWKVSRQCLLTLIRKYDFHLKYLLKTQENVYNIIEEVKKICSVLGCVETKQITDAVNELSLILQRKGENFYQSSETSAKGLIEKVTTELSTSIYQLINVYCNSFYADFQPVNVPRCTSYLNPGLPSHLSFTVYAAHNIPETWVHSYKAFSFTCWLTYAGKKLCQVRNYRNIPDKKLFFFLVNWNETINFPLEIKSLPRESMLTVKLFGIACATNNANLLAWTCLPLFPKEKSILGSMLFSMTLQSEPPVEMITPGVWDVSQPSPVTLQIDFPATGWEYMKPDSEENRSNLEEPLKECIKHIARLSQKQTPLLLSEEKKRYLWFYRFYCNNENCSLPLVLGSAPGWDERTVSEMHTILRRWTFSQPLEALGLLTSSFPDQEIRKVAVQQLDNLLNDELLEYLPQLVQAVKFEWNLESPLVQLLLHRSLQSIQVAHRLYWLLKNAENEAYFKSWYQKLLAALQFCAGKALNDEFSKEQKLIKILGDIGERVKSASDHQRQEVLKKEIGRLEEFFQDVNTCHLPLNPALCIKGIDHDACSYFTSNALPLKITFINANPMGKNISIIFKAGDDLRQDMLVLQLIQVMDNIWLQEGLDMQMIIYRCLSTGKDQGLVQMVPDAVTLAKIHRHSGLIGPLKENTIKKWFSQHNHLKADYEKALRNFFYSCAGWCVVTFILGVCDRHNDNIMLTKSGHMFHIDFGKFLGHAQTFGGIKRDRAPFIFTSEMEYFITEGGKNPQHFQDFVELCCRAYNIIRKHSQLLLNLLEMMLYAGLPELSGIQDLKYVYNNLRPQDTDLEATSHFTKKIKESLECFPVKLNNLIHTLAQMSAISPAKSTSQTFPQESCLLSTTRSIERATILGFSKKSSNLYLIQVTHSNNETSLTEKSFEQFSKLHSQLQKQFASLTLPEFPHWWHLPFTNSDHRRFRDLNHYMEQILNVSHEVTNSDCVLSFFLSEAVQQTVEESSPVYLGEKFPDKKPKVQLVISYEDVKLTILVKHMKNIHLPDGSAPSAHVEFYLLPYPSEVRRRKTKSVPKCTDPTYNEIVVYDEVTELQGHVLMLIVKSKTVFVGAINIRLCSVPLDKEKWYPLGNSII

Structure (SMILES) | residual binding, % of control [1] | residual binding, % of control [2] | residual binding, % of control [3] | residual binding, % of control [4] | residual binding, % of control [5] | residual binding, % of control [6] | residual binding, % of control [7] | residual binding, % of control [8] | residual binding, % of control [9] | residual binding, % of control [10] | residual binding, % of control [11] | residual binding, % of control [12] | residual binding, % of control [13] | inhibition [14] | inhibition [15] | inhibition [16] | inhibition [17] | inhibition [18] | residual binding, % of control [19] | inhibition [20] | further results
CCN1CCN(Cc2ccc(NC(=O)c3ccc(C)c(C#Cc4cccnc4)c3)cc2C(F)(F)F)CC1 | 8.8% | 100% | 30% | 78% | 72% | 1.6% | 88% | 3.9% | 77% | 51% | 100% | 0% | 64% | 21% | 0.05% | 3.4% | 6.4% | 100% | 83% | 84% | inhibition [21]: 100%; inhibition [22]: 11%; level, % of control [23]: 23%; level, % of control [24]: 100%; level, % of control [25]: 0.75%
CCN1CCN(Cc2ccc(NC(=O)c3ccc(C)c(C#Cc4cnc5[nH]ccc5c4)c3)cc2C(F)(F)F)CC1 | 8.8% | 100% | 4.6% | 72% | 68% | 0% | 89% | 6.8% | 35% | 54% | 95% | 0% | 37% | 11% | 0% | 0.15% | 14% | 47% | 64% | 60% | inhibition [21]: 100%; inhibition [22]: 3.2%; level, % of control [23]: 52%; level, % of control [24]: 14%; level, % of control [25]: 0%
